Measurements as given in a melting point compilation (Tetko et al.; mined from patent text by program, amines drawn as free bases though some values may be those of a salt).

| Structure (SMILES) | melting point |
| --- | --- |
| COc1ccc(CC(=O)NC(NC(=NC#N)Nc2ccccc2C)C(C)(C)C)cc1OC (stereo not drawn) | 156 to 157 °C |
| CCNS(=O)(=O)c1ccc(C2=C(c3cccc(F)c3)C(=O)C(C)(C)O2)cc1 | 113 to 114 °C |
| Cn1c2c(c(=O)[nH]c1=O)CCC2 | 250 to 251 °C |
| COc1cc([N+](=O)[O-])c2nccc(C)c2c1Oc1ccc(Cl)cc1Cl | 166 to 168 °C |
| CNC(=O)Oc1ccc(NC(=O)C(Cl)Cl)c(C)c1 | 199 to 201 °C |
| Cc1ccc2c(c1)N=C(Cl)c1cscc1O2 | 208 to 209 °C |
| COc1cc(C)c(O)c2ccccc12 | 102 to 103 °C |
| CN(CCCCCNC(=NCCSCc1csc(NC(=N)N)n1)NC#N)CCC(c1ccc(Cl)cc1)c1ccccn1 (stereo not drawn) | 87 to 90 °C |
| Fc1ccc(-c2ccc3[nH]c4c(ccc5cc[nH]c54)c3c2)c(F)c1 | > 250 °C |
| COC(=O)c1ccc(-n2cccc2)cc1 | 128 to 129 °C |
| O=S(=O)(c1ccccc1)n1c(Cc2cccc(-c3cc4ccccc4n3S(=O)(=O)c3ccccc3)c2)cc2ccccc21 | 76 to 78 °C |
| CS(=O)(=O)NC(=O)CCCCOc1cccc(O)c1C=O | 136 to 138 °C |
| O=Cc1ccc2ccc(-c3ccccc3)nc2c1 | 108 °C |
| Clc1cccc2c1sc1ncnn12 | 203 °C |
| Oc1ccc(Oc2ccccc2F)cc1 | 81.5 to 82 °C |
| NNC(=O)CCCSc1nccc(NC(N)=NCC(F)(F)F)n1 | 192 to 195 °C |
| CCCCCCCCCCCC(=O)Oc1ccc2nc(S(N)(=O)=O)sc2c1 | 112 to 114 °C |
| Cc1cccnc1N[C@H]1CC[C@H](C2CCCCC2)CC1 | 65 to 67 °C |
| COC(=O)c1cc2ccc(OCCc3ccccc3)cc2oc1=O | 100 to 101 °C |
| C=CCc1cccc(C[C@H](NC(=O)OC(C)(C)C)[C@H](O)CCl)c1 | 123 to 126 °C |
| CCOP(=S)(OCC)Oc1c(C(=O)c2ccccc2Cl)c(C)nn1C | 71 to 74 °C |
| Cc1nc(N)nc(N)c1N1CCN(c2ccc(C=NOCC(=O)OCCc3ccccc3)cc2)CC1 | 255 to 257 °C |
| CC/C=C\CCCCCCCCCCOc1ccc(C(C)=O)o1 | 36 to 38 °C |
| O=[N+]([O-])c1ccc(Cl)c(S)c1 | 267 to 268 °C |
| CCCCCCc1ccc(O)c(C(=O)Nc2ccc([N+](=O)[O-])cc2)c1 | 154 to 155 °C |
| CC(Cc1ccc(C(=O)N[C@@H](CCC(=O)O)C(=O)O)cc1)C1CNc2nc(N)nc(O)c2C1 (stereo partly drawn) | > 250 °C |

| Structure (SMILES) | melting point |
| --- | --- |
| Cn1c2ccccc2c(=O)c2cccn21 | 154 to 156 °C |
| N#CCOc1ccc2cc(-c3ccc(-c4ccccc4)[nH]3)ccc2c1 | 142 °C |
| CC(c1oc2ccccc2c(=O)c1-c1cccc(F)c1)n1cnc2c(N)ncnc21 (stereo not drawn) | 155 to 158 °C |
| Cc1ccc(-c2csc(-c3ccc(C(=O)O)cc3)n2)cc1C | 261 to 262 °C |
| CNC(=O)OC1CCC2(CO2)C(C2(C)OC2CC=C(C)C)C1OC (stereo not drawn) | 92 to 93 °C |
| CC(C)(C)c1ccc(S(=O)(=O)NCc2ccc(C(=O)O)cc2)cc1 | 290 to 291 °C |
| COC(=O)Nc1ccc(Br)cn1 | 191 to 192 °C |
| O=S1(=O)Cc2ccc(F)cc2C(c2ccc(F)cc2)=NN1CCCc1ccccc1 | 163 to 167 °C |
| O=C1c2ccncc2C(=O)c2c(F)ccc(F)c21 | 197 to 199 °C |
| CCCCOCCOc1ccc(-c2ccc(N3CCCC3)c(C=C(CC)C(=O)O)c2)cc1 | 155 to 156 °C |
| CNC(=O)Cc1ccc(N)c(N)c1 | 136 to 138 °C |
| CC(C)c1nn(-c2ccccn2)c(-c2ccc(F)cc2)c1/C=C/C=O | 105 to 107 °C |
| CON=C(C1=CN(C)CC=C1)C(F)(F)F | 140 to 143 °C |
| CC(C)c1nc(C(C)(C)C)cc(-c2ccc(F)cc2)c1C=CI | 78 to 80 °C |
| COc1cccc(-c2cnn3c(-c4cccc(NC(=O)CC(C)C)c4)ccnc23)c1 | 153 to 154 °C |
| CCOC(=O)N(C(C)=O)c1ccc(OCc2nc3ccccc3s2)cc1 | 155 to 160 °C |
| CC1CCN(c2cc(F)cc(C(=O)Nc3ccc(OCCN4CCOCC4)c4ccccc34)c2)CC1 | 116 to 118 °C |
| O=C(CCNC(=O)[C@H](Cc1ccc(-c2ccccc2)cc1)NCP(=O)(Oc1ccccc1)Oc1ccccc1)Oc1ccc2c(c1)CCC2 | 89 to 91 °C |
| O=C1NCc2ccccc2C([N+](=O)[O-])N1 (stereo not drawn) | 93 to 95 °C |
| CC(=NOCCC(=O)O)c1ccc(Cl)cc1 | 80 to 83 °C |
| Cn1ccnc1COc1ccccc1N | 114 to 116 °C |
| NC(=O)c1ccc(NCc2cccc([N+](=O)[O-])c2)cc1 | 178 to 180 °C |
| O=C(O)c1c[nH]c2cc(C3CC3)nn2c1=O | 275 to 278 °C |
| O=C(Nc1nc(Cl)cc(Cl)n1)NS(=O)(=O)Nc1ccccc1C(=O)C1CC1 | 114 to 116 °C |
| CCCCC[C@H](CC(=O)OC(C)(C)C)C(=O)N1C(=O)OC[C@@H]1C(C)C | 51 to 53 °C |
| O=C(O)CN(CCCCC(C(=O)O)N(CC(=O)O)CC(=O)O)CC(=O)O (stereo not drawn) | 216 to 220 °C |

| Structure (SMILES) | melting point |
| --- | --- |
| COc1cc(C(=O)c2cnc(Cl)nc2Cl)cc(OC)c1OC | 140 to 141 °C |
| COC(=O)c1cc(CCNC(=O)C(F)(F)F)ccc1OC | 61 to 63 °C |
| CCCCCCCCCCCCCCCCCCOc1cc(N)cc(OCCCCC(=O)OC)c1 | 57 to 59 °C |
| O=C(NC1C(=O)N(CCCO)c2ccccc2N(c2ccccc2)C1=O)Oc1ccccc1 (stereo not drawn) | 203 to 204 °C |
| O=C(Nc1nnn[nH]1)c1cnc2sc3ccccc3n2c1=O | 330 to 332 °C |
| O=C(O)C=Cc1ccc(C=CC(=O)O)c2ccccc12 | 350 to 355 °C |
| COc1cc(Cc2cnc(N)nc2N)cc(OC)c1CN | 176 to 178 °C |
| Cn1cccc1CCNCC(O)COc1cccc2[nH]ccc12 (stereo not drawn) | 105 to 106 °C |
| CN1CC[C@@H](c2c(O)cc(O)c3c(=O)cc(-c4cc(Cl)ccc4Br)oc23)[C@@H]1CO | 233 to 235 °C |
| COC(=O)C(O)c1ccc2c(c1)OCO2 (stereo not drawn) | 93 to 95 °C |
| c1ccc2c(OCCNCCCc3c[nH]c4ccccc34)cccc2c1 | 119 to 120 °C |
| CC(C)(c1ccc(Oc2ccc([N+](=O)[O-])cc2C(F)(F)F)cc1)c1cccc(C(C)(C)c2ccc(Oc3ccc([N+](=O)[O-])cc3C(F)(F)F)cc2)c1 | 127 to 128 °C |
| FC(F)(F)/C(=C(\c1ccccc1)c1ccc(OCc2ccccc2)cc1)c1ccccc1 | 128 to 129 °C |
| Cc1cccc(C)c1NC(N)=NN | 192 to 193 °C |
| CC#CCOc1ccc(S(=O)(=O)C2(C(=O)O)CCN(Cc3ccc(C#N)cc3)CC2)cc1 | 110 °C |
| CCOC(=O)c1ccc(NC(=O)c2ccc(OC)c(OC)c2)c2ccccc12 | 144 to 146 °C |
| OCCN1CCN(c2ccc(Nc3ncc4ccc(-c5cccnc5)n4n3)cc2)CC1 | 189 to 190 °C |
| O=C(Nc1cccc2ccccc12)N[C@H]1C[C@H](C(=O)O)Nc2cc(Cl)cc(Cl)c21 (relative stereo) | 241 to 242 °C |
| COc1ccc(CN2C(=O)[C@@H](NC(=O)Cc3ccccc3)[C@H]2CNC(C)=O)c(OC)c1 (relative stereo) | 205 to 207 °C |
| Fc1cccc2[nH]c(-c3ccccc3)cc12 | 65 to 67 °C |
| CCN(CC)CCOc1ccc(CNc2ncc3c(n2)N(C)C(=O)N(c2c(Cl)cccc2Cl)C3)cc1 | 137 to 138 °C |
| CCOC(=O)CN(c1ccncc1F)n1ccc2ccccc21 | 86 to 87 °C |
| CCOC(=O)c1c2ccc(CC(=O)NOCC(=O)N3CCOCC3)ccc-2c(C(=O)OCC)c1N | 196 to 198 °C |
| O=[N+]([O-])c1cc(CCC(O)=S)cc(O)c1O | 91 to 93 °C |
| CCc1cn(C2CC(O)C(CNC(=O)Cc3c(Cl)cccc3Cl)O2)c(=O)[nH]c1=O (stereo not drawn) | 296 to 297 °C |
| COCCc1cc(N)n2nc(SC)c(S(=O)(=O)c3ccccc3)c2n1 | 186 to 187 °C |

| Structure (SMILES) | melting point |
| --- | --- |
| COC(=O)c1cccc(-c2nc(C(Cl)(Cl)Cl)nc(C(Cl)(Cl)Cl)n2)c1 | 115 to 117 °C |
| C=CC[C@@H]1C[C@@H](COc2ccc(-c3ccc(C#N)cc3)cc2)NC1=O | 99 to 101 °C |
| O=c1ccc2c(-n3cnc(-c4ccccc4)c3)nccc2[nH]1 | 263 to 265 °C |
| O=P(O)(O)C(O)(CCc1nccn1Cc1ccccc1)P(=O)(O)O | 238 °C |
| CCOC(=O)C1=Cc2cc(C#N)ccc2OC1C(F)(F)F (stereo not drawn) | 102 to 106 °C |
| CCOC(=O)CCN1C(=O)C(NC(=O)OCc2ccccc2)N=C(c2ccccc2)c2ccccc21 (stereo not drawn) | 57 to 59 °C |
| COc1ccc(S(=O)(=O)CC(C)=CCOC(C)=O)cc1 | 54 to 56 °C |
| CCOCc1nc2c(N)nc3cc(NS(=O)(=O)CC)ccc3c2n1CC(C)(C)O | 124 to 127 °C |
| CSc1cnc(NC(=O)c2ccccc2OC(C)=O)s1 | 145 to 147 °C |
| CC(C)c1ccc2ncc(C(=O)O)c(O)c2c1 | 298 °C |
| COc1ccnc(C#N)c1OC | 133 °C |
| CNS(=O)(=O)OCCOc1ccccc1 | 66 to 68 °C |
| O=C(O)C(=O)c1cn(Cc2ccc(F)cc2)c2ccc(-c3ccccc3)cc12 | 165 to 166 °C |
| COc1cc(Nc2nc3cccc(-c4cccc(CN)c4)c3o2)cc(OC)c1OC | 145 to 150 °C |
| CCOC(=O)c1cc(OC)c(C(=O)OCC)cc1Br | 61 to 63 °C |
| CCOC(=O)c1ccsc1NC(=O)NC | 83 to 87 °C |
| CCCCSc1cc2nc3ccccc3sc-2cc1=O | 133 °C |
| COC(C)(C)CNC(=O)c1cccc(-c2cccc3cc(Cc4cc(F)cc(Cl)c4)sc23)c1 | 89 to 90 °C |
| CNC(=O)c1cccc(NC(=O)CCc2ccc(O)cc2)c1 | 158 °C |
| CC(C)c1cc(O)cc2c1C(=O)N(CBr)S2(=O)=O | 167 to 169 °C |
| O=S(=O)(N[C@H](CO)C(CC(F)(F)F)CC(F)(F)F)c1ccc(Cl)cc1 | 186 to 187 °C |
| O=C(Nc1ccccc1)c1cccc([N+](=O)[O-])c1C(=O)Nc1ccccc1 | 139 to 141 °C |
| CS(=O)(=O)C(=C1CN(C(c2ccccc2)c2ccccc2)C1)c1cccc(F)c1 | 210 °C |
| CN(C(=O)CCl)C1(c2ccccc2)Cc2ccccc2C1 | 134 to 137 °C |
| Oc1ccc(-c2cccnc2)cc1 | 195 °C |
